What was measured:
[1] = test system: NIH/3T3 cell line; assay: Alamar blue viability assay in NIH/3T3 cells; type: cell-based, mouse; details: 0.31-5 μM ML228, 48 hours, p<0.0001
Description: Embryonic mouse fibroblast NIH/3T3 cell line (ATCC) were seeded at a concentration of 50*10^3 cells/well on 96 well glass bottom plate (P96-1.5H-N, Cellvis) for the immunofluorescence experiment and on cell culture microplate, 96 well, PS, F-Bottom (655090, greiner) for the viability experiment. The cells were cultured with Dulbecco's modified Eagle's medium (DMEM) supplemented with 10% fetal calf serum, 1% Penicillin-Streptomycin solution and 1% L-glutamine (All purchased from Rhenium). At 24 hours post seeding, cells were treated for another 48 hours by replacing them with the cell medium supplemented with a serial dilution (5-0.02 μM, factor dilution of 2) of the ML228, Daprodustat, Enarodustat, Molidustat, Vadadustat or Roxadustat molecules dissolved in DMSO. The final DMSO concentration in the cell medium was 0.01%. […]
For the ML228 experiment, at 48 hours post treatment, cells were stained by replacing the cell medium with Alamar blue (Enco, Petach Tikvah, Israel) diluted 1:10 in the cell medium, and incubated for 4 hours (37° C., 5% CO2). Then, fluorescence readouts were obtained using the Spark multimode microplate reader (Tecan) at excitation/emission 540±20 nm/590±20 nm. Cell viability was calculated as the percentage difference of treated cells with ML228 relative to the control cells at 590±20 nm emission.

[2] = test system: HIF-1α, Collagen-I protein levels in fibroblast cells; assay: Western blot of HIF-1α and Collagen-I in fibroblast lysate; type: cell-based, human
Description: Cells at a density of 50,000 cells/well in a 24-well plate were cultured for 2 days with variable ML228 concentrations. Cells were sonicated and lysed in a buffer containing 20 mM Tris-HCL pH=7.5 with a protease inhibitor (Abcam, Cambridge, UK) or a protease inhibitor from Merck (539134, Merck). Equal amounts (1 μg) of total protein were loaded and tested using Western blotting. Samples were divided for testing native samples and denaturative samples, which were dependent on each antibody recognition sites. Samples size was separated by a 6% sodium dodecyl sulfate (SDS) gel and transferred to nitrocellulose membranes that was further incubated overnight with primary antibodies of HIF-1α, and β-tubulin. As for detecting Collagen-I, samples were prepared in native conditions absent of SDS and β-mercaptoethanol. Thereafter, samples were separated by a native gel. Detection of Collagen-I was done in 6% native gel enabling observation of non-denatured structural collagen and preventing thermal degradation of the heat sensitive collagen. After extensive washing with TBST (Tris-buffered saline supplemented with 0.1% Tween-20), the membrane was further incubated with an HRP-conjugated secondary antibody for 1 hour. Chemiluminescence values were read after the addition of ECL substrate in a ChemiDoc imager (Biorad CA, USA).

**Q.** For `c1ccc(-c2ccc(CNc3nc(-c4ccccn4)nnc3-c3ccccc3)cc2)cc1` [ML228, N-([1,1′-Biphenyl]-4-ylmethyl)-6-phenyl-3-(2-pyridinyl)-1,2,4-triazin-5-amine], which “viability compared to untreated cells” value [1] is on record?
**A.** Its value is “lower viability”.

**Q.** And the HIF-1α protein level ([2]; increasing concentrations of ML228, 48 hours)?
**A.** Its HIF-1α protein level is “higher levels”.

**Q.** What about the Collagen-I protein level ([2]; increasing concentrations of ML228, 48 hours, native gel) of the same molecule?
**A.** The Collagen-I protein level was “higher levels”.

**Q.** And the HIF-1α protein level ([2]; low doses of ML228, 48 hours)?
**A.** Its HIF-1α protein level is “no HIF-1α protein is observed”.

Source: patent US20250171821A1, “HIF-1 ACTIVATORS AND USES THEREOF” (Ramot at Tel-Aviv University Ltd., priority 2022, published 2025)
